{"source": "patent US8163921B2", "about": "“Hepatitis C virus inhibitors” (Bristol-Myers Squibb Company, priority 2008, dated 2012)", "key": {"[1]": {"target": "T1, HCV NS3/4A protease complex, BMS strain (UniProt P27958, C1454S/C1711G, species not given)", "T1 construct": "other: HCV NS3/4A enzyme assay; class symbols; numeric values; fused on or other part: three-lysine solubilising tail at the C-terminus of NS4A; purified on Ni-NTA from the pET21b vector (His tag implied)", "experiment": "FRET peptide assay to monitor HCV NS3/4A proteolytic activity (BMS strain)", "assay_type": "biochemical, HCV genotype 1a", "conditions": "read-out: IC50 Range; HCV NS3/4A enzyme assay; class symbols", "method_in_brief": "(§1)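 Recombinant HCV NS3/4A protease complex (BMS strain, genotype 1a), 2-3 nM final (300 pM with 50 μg/ml BSA for very potent compounds), incubated with RET S1 EDANS/DABCYL depsipeptide substrate at 2 μM final. Buffer: 50 mM HEPES pH 7.5, 0.15 M NaCl, 0.1% Triton, 15% glycerol, 10 mM βME. Cleavage followed in real time by fluorescence.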"}, "[2]": {"target": "T2, HCV NS3/4A protease complex, BMS strain (UniProt P27958, C1454S/C1711G, species not given/STRAIN_BMS)", "T2 construct": "other: BMS strain; fused on or other part: three-lysine solubilising tail at the C-terminus of NS4A; purified on Ni-NTA from the pET21b vector (His tag implied)", "experiment": "FRET peptide assay to monitor HCV NS3/4A proteolytic activity (BMS strain)", "assay_type": "biochemical, HCV genotype 1a", "conditions": "read-out: IC50 against the NS3/4A BMS strain in the enzyme assay; BMS strain", "method_in_brief": "as §1"}}}
{"compound": "C=C[C@@H]1C[C@]1(NC(=O)[C@@H]1C[C@@H](Oc2ncc(OC)c3ccc(Cl)cc23)CN1C(=O)[C@@H](Nc1nc(-c2cccc(OC(F)(F)F)c2)cs1)C(C)(C)C)C(=O)NS(=O)(=O)C1CC1", "note": "[Example 68]", "values": [{"measurement": "IC50", "setting": "[1]", "result": "1 to 20", "unit": "nM"}, {"measurement": "IC50", "setting": "[2]", "result": 4, "unit": "nM"}]}
